Assay results as given in patent US20240180999A1, “EZRIN PEPTIDE 1 FOR USE IN A METHOD OF TREATING POST COVID-19” (priority 2021, published 2024).
No end group written: not given here.

Legend:
[1] = tested on: LONG-COVID-19 symptoms; test: Treatment of patients suffering from post-COVID-19 syndrome (long COVID) with daily s.c. injection of HEP-1, single case reports; format: in vivo, human
[2] = Toxicity at high dosages (general statement); format: in vivo; conditions: high dosages of 50 mg per kg of body weight per day or higher
Experimental: The dosage of Ezrin peptide 1 and its analogues of the formula (I) is not particularly critical, as Ezrin peptide 1 and its analogues are not toxic even at high dosages of 50 mg per kg of body weight per day or higher. Preferably, Ezrin peptide 1 and its analogues are administered to an adult human in an amount of at least 0.05 milligrams per day (mg/d), in particular at least 0.1 mg/d, e.g. in an amount of 0.05 to 5 mg/d, in particular 0.1 to 2 mg/d or 0.1 to 1 mg/d or 0.1 to 0.5 mg/d. Typically, for parenteral administrations lower dosages will be required than for oral or rectal administration. To achieve a rapid relief of the symptoms of post-COVID-19 syndrome, it may also be reasonable to administer at least 0.5 mg per day or at least 1 mg per day, e.g. in the range of 0.5 to 5 mg/d, but in other cases a lower dosage may be suitable. It is also possible to start with a higher dosage, e. g. in the range of 0.5 to 5 mg/d, more preferably 0.5 to 3 mg/d and then continue with a lower dosage of e.g. 0.05 to 0.5 mg/d or 0.1 to 0.5 mg/day. A single administration of Ezrin peptide 1 and/or one of its analogues of the formula (I) may be sufficient to ameliorate or even cure the symptoms of a post-COVID-19 syndrome. […] Depending on the severity of the symptoms, this time period is typically in the range of 5 days to 10 weeks and in particular in the range of 10 days to 8 weeks.

[3] = tested on: cell cultures; conditions: R. Ataullakhanov et al. 2005; cited from earlier work
[4] = tested on: inflammatory cytokine production; conditions: cell cultures; cited from earlier work

TEKKRRETVEREKE [HEP-1, NH2_Thr-Glu-Lys-Lys-Arg-Arg-Glu-Thr-Val-Glu-Arg-Glu-Lys-Glu_COOH]
final clinical outcome of long COVID ([1]; Example 1, person, HEP-1 0.2 mg s.c. per day 22 Jan. 2021 until Mar. 10 2021, assessed 10 Mar. 2021): complete recovery
mental ability (short memory) and physical strength (walking distance), interim outcome ([1]; Example 1, person, HEP-1 0.2 mg s.c. per day from 22 Jan. 2021, assessed 29 Jan. 2021): remarkable improvement
mental ability (short memory) and physical strength (walking distance), interim outcome ([1]; Example 2, person, ankylosis spondylitis, HEP-1 0.2 mg s.c. per day from 26 Feb. 2021, assessed 4 Mar. 2021): remarkable improvement
final clinical outcome of long COVID ([1]; Example 2, person, HEP-1 0.2 mg s.c. per day 26 Feb. 2021 until Mar. 17 2021, assessed 17 Mar. 2021): complete recovery
final clinical outcome of long COVID ([1]; Example 3, person, HEP-1 0.2 mg s.c. per day 29 Mar. 2021 until Apr. 24 2021, assessed 23 Apr. 2021): complete recovery
mental ability (short memory) and physical strength (walking distance), interim outcome ([1]; Example 3, person, HEP-1 0.2 mg s.c. per day from 29 Mar. 2021, assessed 15 Apr. 2021): remarkable improvement
final clinical outcome of long COVID (persisting fatigue syndrome) ([1]; Example 4, person, HEP-1 0.2 mg s.c. per day for 10 days): free of any symptoms
final clinical outcome of long COVID (fatigue syndrome and cognitive disorder) ([1]; Example 5, person, HEP-1 0.2 mg s.c. per day from 26 Feb. 2021, assessed 12 Mar. 2021): free of any symptoms
final clinical outcome of long COVID ([1]; Example 6, person, asthma, HEP-1 2 mg s.c. per day for 10 days, then 0.2 mg s.c. per day for 30 days, after 3 weeks of treatment): cured
final clinical outcome of long COVID (fatigue, cognitive disorder, narcolepsy) ([1]; Example 7, person, HEP-1 0.2 mg s.c. per day, after 11 days of treatment): symptoms completely disappeared
toxicity [2]: not toxic
anti-viral effect in cell cultures [3]: shows an anti-viral effect
production of pro- and inflammatory cytokins (e.g. IL-1, IL-6, TNF-alpha) [4]: reduces
synthesis of alpha- and beta interferons [4]: induces
